Three compounds from patent publication US9127040B2, “Regulation of sodium channels by PLUNC proteins” (The University of North Carolina at Chapel Hill, priority 2011, dated 2015) can be followed below.

The target in assay [1] is T1, ENaC (Homo sapiens, UniProt P37088+P51168+P51170).
T1 construct: measured the transepithelial voltage under thin film conditions in human bronchial epithelial cultures; endogenous in cells; host or cells: primary human bronchial epithelial cultures (normal or CF donors)
T1 sequence (P37088 1-669): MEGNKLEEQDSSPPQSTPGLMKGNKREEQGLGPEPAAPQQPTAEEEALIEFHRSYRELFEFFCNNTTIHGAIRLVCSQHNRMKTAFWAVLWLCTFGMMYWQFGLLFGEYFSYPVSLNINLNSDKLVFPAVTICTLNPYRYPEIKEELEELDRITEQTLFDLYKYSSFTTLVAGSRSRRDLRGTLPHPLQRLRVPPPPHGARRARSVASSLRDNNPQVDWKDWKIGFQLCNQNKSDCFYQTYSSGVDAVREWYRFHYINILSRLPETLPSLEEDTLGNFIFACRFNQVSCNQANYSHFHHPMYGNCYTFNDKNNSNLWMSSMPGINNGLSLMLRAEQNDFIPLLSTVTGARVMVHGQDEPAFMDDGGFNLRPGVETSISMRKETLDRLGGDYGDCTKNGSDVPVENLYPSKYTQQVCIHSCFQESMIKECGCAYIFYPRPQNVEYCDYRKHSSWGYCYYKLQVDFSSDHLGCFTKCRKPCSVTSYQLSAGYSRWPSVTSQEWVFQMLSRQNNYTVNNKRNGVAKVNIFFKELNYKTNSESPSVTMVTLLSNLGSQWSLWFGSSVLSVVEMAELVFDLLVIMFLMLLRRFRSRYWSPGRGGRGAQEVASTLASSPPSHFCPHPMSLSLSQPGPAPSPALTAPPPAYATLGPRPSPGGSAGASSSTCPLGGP
T1 sequence (P51168 1-640): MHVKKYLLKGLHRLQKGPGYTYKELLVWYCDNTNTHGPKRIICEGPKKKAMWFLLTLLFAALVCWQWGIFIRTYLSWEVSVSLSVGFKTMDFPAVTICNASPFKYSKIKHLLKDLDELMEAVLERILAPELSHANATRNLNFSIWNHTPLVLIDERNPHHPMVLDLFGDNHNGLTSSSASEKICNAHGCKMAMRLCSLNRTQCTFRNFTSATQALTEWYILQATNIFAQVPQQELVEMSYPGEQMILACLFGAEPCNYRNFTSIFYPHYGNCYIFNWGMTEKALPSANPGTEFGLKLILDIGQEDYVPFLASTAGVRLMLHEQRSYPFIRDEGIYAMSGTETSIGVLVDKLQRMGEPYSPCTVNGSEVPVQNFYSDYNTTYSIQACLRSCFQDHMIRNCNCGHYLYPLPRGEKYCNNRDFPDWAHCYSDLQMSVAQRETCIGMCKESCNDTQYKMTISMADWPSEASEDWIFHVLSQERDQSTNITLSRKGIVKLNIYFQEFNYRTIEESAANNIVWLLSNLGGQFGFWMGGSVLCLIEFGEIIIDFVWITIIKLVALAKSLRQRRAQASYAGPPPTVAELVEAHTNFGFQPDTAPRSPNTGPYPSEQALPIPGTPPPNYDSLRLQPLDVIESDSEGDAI
T1 sequence (P51170 1-649): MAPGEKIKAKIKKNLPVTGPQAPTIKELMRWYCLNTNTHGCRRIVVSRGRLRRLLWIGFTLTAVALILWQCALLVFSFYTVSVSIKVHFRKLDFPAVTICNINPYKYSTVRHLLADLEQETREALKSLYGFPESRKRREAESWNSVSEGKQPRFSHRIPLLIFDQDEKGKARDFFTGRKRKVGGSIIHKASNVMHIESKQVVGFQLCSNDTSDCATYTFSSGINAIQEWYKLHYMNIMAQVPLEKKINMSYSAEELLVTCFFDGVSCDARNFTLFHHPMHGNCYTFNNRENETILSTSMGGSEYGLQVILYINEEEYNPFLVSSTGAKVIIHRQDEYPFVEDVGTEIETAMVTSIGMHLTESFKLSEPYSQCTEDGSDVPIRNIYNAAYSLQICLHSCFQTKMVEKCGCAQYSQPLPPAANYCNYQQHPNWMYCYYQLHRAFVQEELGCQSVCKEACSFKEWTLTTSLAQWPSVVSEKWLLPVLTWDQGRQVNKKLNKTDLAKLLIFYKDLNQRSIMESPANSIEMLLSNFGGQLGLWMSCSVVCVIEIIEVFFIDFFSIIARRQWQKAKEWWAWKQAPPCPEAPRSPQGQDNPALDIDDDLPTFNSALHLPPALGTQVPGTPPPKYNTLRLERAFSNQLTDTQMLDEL
Briefly: Transepithelial voltage (PD), thin film conditions, human bronchial epithelial cultures. Also on record: reduction of transepithelial voltage: dose or concentration left out as unconfirmed. Type of assay: cell-based. An excerpt: Tissue procurement and cell culture: Cells were harvested by enzymatic digestion from human bronchial tissue as previously described under a protocol approved by the UNC School of Medicine IRB (Tarran et al., J. Gen. Physiol. 127:591 (2006)). Human excess donor lungs and excised recipient lungs were obtained at the time of lung transplantation from portions of main stem or […] bronchi and cells were harvested by enzymatic digestion. All preparations were maintained at an air-liquid interface in a modified bronchial epithelial medium and used 2-5 weeks after seeding on 12 mm T-Clear inserts (Corning Costar) coated with human placental type VI collagen (Sigma). Phosphate buffered saline (PBS) was used for washing human bronchial epithelial culture mucosal surfaces. HBECs were maintained at an air-liquid interface in a modified bronchial epithelial growth medium (BEGM) with 5% CO2 at 37° C. and used 2-5 weeks after seeding on 12-mm T-clear inserts (Corning-Costar, Corning, N.Y., USA) (Randell, Methods Mol. Biol. 742:285 (2011)).
A single-barreled potential difference-sensing electrode was placed in the airway surface liquid by micromanipulator and used in conjunction with a macroelectrode in the serosal solution to measure transepithelial voltage using a voltmeter (World Precision Instruments). […] Transepithelial resistance was routinely measured using the EVOM system (WPI) as previously described (Tarran et al., J. Gen. Physiol. 127:591 (2006)).

The subject of the next assay is trypsin. Briefly: Cell-free fluorogenic assay, trypsin cleavage of BGAR-MCA. Format: biochemical. Conditions: 50 ng/ml rSPLUNC1 or 2 U/ml aprotinin; 1.0 or 0.3 U/ml trypsin. On the procedure: (§1) For cell-free assays, reactions were carried out in 50 μl Ringer in a 96 well plate format with 100 μM BGAR-MCA. To measure endogenous protease activity in human bronchial epithelial cultures, 30 μl Ringer with 100 μM BGAR-MCA were placed directly onto the mucosal surfaces of human bronchial epithelial cultures grown on 12 mm T-clear inserts and the cultures were assayed in 12 well plates.

Another assay deals with serine proteases. Briefly: Endogenous protease activity (BGAR-MCA cleavage) on mucosal surface of human bronchial epithelial cultures. Type of assay: cell-based. On the procedure: as §1
The target in assay [2] is T2, αENaC-eGFP and βENaC-mCherry (Homo sapiens, UniProt P37088+P51168).
T2 construct: expressed in transfected cells
Kind of assay: Acceptor-photobleaching FRET between fluorescently tagged ENaC subunits. Type of assay: cell-based. Conditions: one hour of exposure. From the text: Ai, cartoon of αENaC-eGFP and βENaC-mCherry under basal conditions (γENaC not shown). Aii We hypothesize that S18 binding to the extracellular loop of βENaC (1) induces a conformational change in ENaC which is reflected as altered intracellular FRET (2). This change may facilitate NEDD4-2-induced ubiquitination (3), leading to internalization of αβγENaC (4). […] In contrast, exposure to aprotinin had no effect. All n=8-10. C, Typical confocal images of HEK cells expressing αγENaC and βENaC-eGFP before and 1 h after 100 μM S18. Cell outlines are traced in white.
Since ENaC is regulated by NEDD4-2 binding to its C-termini, which leads to ubiquitination of its N-termini and internalization, we propose that S18 causes a conformational change in ENaC, leading to increased ubiquitination followed by internalization (FIG. 21A). As a first step towards understanding the mechanism of action of SPLUNC1, we performed FRET on fluorescently tagged ENaCs. […] Furthermore, βENaC-eGFP internalized upon S18 binding (FIG. 21C), consistent with our surface biotinylation data from oocytes.

Another assay concerns CF HBECs. As to conditions: 8 h ASL height.
Another assay has as its target T3, βENaC (Homo sapiens, UniProt P51168).
T3 construct: expressed in transfected cells; host or cells: HEK293T cells (lysate)
T3 sequence (P51168 1-640): T1 sequence (P51168 1-640)
Kind of assay: Biotinylated peptide pull-down of ENaC subunits from HEK293T cells. Type of assay: binding. Conditions: subunits individually expressed, biotinylated peptide. On the procedure: HEK293T cells were transfected with double-tagged human ENaC subunits with HA and V5 epitopes at the N- and C-termini, respectively, in combination with wild-type untagged subunit cDNA. When all three ENaC subunits were expressed, 0.5 μg of each subunit were transfected per well. When expressed individually, 0.75 μg of the subunit were transfected per well. The transfected cells were lysed 24 h later using NP-40 buffer with 1× complete EDTA-free protease inhibitor (Roche, Basel, Switzerland). The lysate was centrifuged at 16,300×g for 15 minutes at 4° C. and the supernatant collected. Protein concentration was determined using the BCA assay and 500 μg of protein plus 0.25 mg peptide and 100 μL of neutravidin were added to a spin column and rotated end-over-end at 4° C. for 24 h (all ThermoFisher Scientific, Rockford, Ill., USA). Flow-through was collected by centrifugation at 1000×g for 30 s. The beads were then washed 5× with NP-40 buffer. Bound protein was eluted by boiling at 95° C. for 10 minutes in 75 μL of 2×LDS NuPAGE sample buffer with 1× sample reducing agent followed by centrifugation at 16,300×g for 2 minutes. Samples were resolved on 4-12% Bis-Tris gels in MES and transferred to a nitrocellulose membrane using iBlot, setting P3 for 8 min (Invitrogen, Carlsbad, Calif., USA). The membrane was probed using 1:1000 anti-V5 antibody (Invitrogen, Carlsbad, Calif., USA) overnight at 4° C. in 3% fish gelatin in TBS-T. The blot was then incubated for 1 h at room temperature with an ECL sheep anti-mouse IgG secondary antibody and detected by ECL reagent (ThermoFisher Scientific, Waltham, Mass., USA) or by incubation with a goat anti-mouse IRDye secondary antibody and analyzed by an Odyssey infrared imaging system (LI-COR Biosciences, Lincoln, Nebr., USA).
Peptide pull-down assays were performed as described above. Samples were eluted by the addition of 100 μL of 0.1 M sodium citrate, pH 5.5, 0.1% SDS to the beads and incubating at 100° C. for 2 minutes, followed by centrifugation at 16,300×g for 2 minutes. […]

Assay [3] deals with T1, ENaC. Briefly: ASL height 6 h after exposure, alanine scan of S18. Type of assay: cell-based. On the procedure:
To label the ASL, PBS containing 10 kDa Rhodamine dextran (0.2-2 mg/mL; Invitrogen, Carlsbad, Calif., USA) was added to HBEC mucosal surfaces as previously described (Tarran et al., Mol. Cell 8:149 (2001)). When added, peptides with or without 100 nM neutrophil elastase, 1 U/mL aprotinin, activated neutrophil supernatant (ANS) (Haynes et al., Am. J. Physiol. Heart Circ. Physiol. 294:H379 (2008)) or 10 μM sivelestat (Sigma-Aldrich, St Louis, Mo., USA) were added to the mucosal surface along with the Rhodamine dextran. Bumetanide (100 μM) was added to the serosal solution.
ASL height was measured 6 h after exposure to vehicle, control peptide, S18 or S18 with specific residues mutated to alanine as outlined in FIG. 31. […] NB, G1, G2 and A18 were not mutated. […] All n=6.

For assay [4], the target named is T1, ENaC. Kind of assay: Transepithelial electrical resistance in human bronchial epithelial cultures. Format: cell-based. Conditions: 50 ng/ml SPLUNC1 30 min or amiloride 10 min; effects not additive. An excerpt:
A single-barreled potential difference-sensing electrode was placed in the airway surface liquid by micromanipulator and used in conjunction with a macroelectrode in the serosal solution to measure transepithelial voltage using a voltmeter (World Precision Instruments). […] Transepithelial resistance was routinely measured using the EVOM system (WPI) as previously described ([…] et al., J. Gen. Physiol. 127:591 (2006)).

Regarding aprotinin [reference compound], at ENaC [1] (rSPLUNC1 vs aprotinin addition, effects not additive), the “rate of inhibition of the transepithelial voltage” value is recorded as “identical rates”. Moreover, in the assay on trypsin, the “inhibition of trypsin cleavage of fluorogenic substrate BGAR-MCA” value is about 100%. For the same compound, the “BGAR-MCA cleavage on human bronchial epithelial mucosal surfaces” value in the assay on serine proteases is reported as “inhibited”. The “FRET between αENaC-eGFP and βENaC-mCherry” value in assay [2] is given as “no effect”. For the same compound, the “CF ASL hyperabsorption” value in the assay on CF HBECs is “reduces CF ASL hyperabsorption”. Besides, the “CF ASL hyperabsorption in the presence of neutrophil elastase” value in the assay on CF HBECs (neutrophil elastase) is given as “did not prevent neutrophil elastase from activating ENaC”.
As to “ADGGLLLLNNPPPPQTVV (Control peptide sequence) [ABC, reference compound]”, in the assay with βENaC, the “binding to βENaC (pull-down)” value was “No β-ENaC was observed in the elution”. The ASL height entry in the assay with ENaC [3] was “no effect on ASL height”.
Regarding `N=C(N)NC(=O)c1nc(Cl)c(N)nc1N` [amiloride, reference compound], on ENaC [1] (amiloride for 10 min (FIG. 4 legend), n=12), the “reduction of transepithelial voltage” value is recorded as 54%. In addition, the “increase of transepithelial electrical resistance” value at ENaC [4] is listed as about 33%.
